Experimental data as given in a compilation of properties of binary mixtures (doi:10.1016/j.molliq.2022.119918).

Experiment: xn = mol fraction of the nth substance listed
Details: 100 kPa

COCCCC[n+]1ccn(C)c1.NCC(=O)[O-] + CS(C)=O
viscosity [mPa·s]
Details	x1 = 0.1009	x1 = 0.1984	x1 = 0.299	x1 = 0.3986	x1 = 0.4986	x1 = 0.6006	x1 = 0.701	x1 = 0.7941	x1 = 0.907	x1 = 1
288.15 K	7.64	11.87	20.11	32.75	–	66.91	88.2	112	149.9	180.6
293.15 K	6.23	9.49	15.68	24.97	–	–	66.19	–	110.8	130.1
298.15 K	5.05	7.6	12.46	19.85	29.5	40.49	52.63	–	83.6	–
303.15 K	–	6.27	–	15.9	23.66	32.57	42.38	52.54	65.49	74.4
308.15 K	–	5.29	–	13.2	19.51	26.99	–	42.67	52.32	58.09
313.15 K	3.15	4.59	7.18	11.14	16.4	22.63	29.37	35.24	42.06	46.29
318.15 K	–	3.92	6.04	9.3	13.46	18.67	23.75	28.16	32.95	36.43

CS(C)=O + NC(C)C(=O)[O-].COCCCCN1C=[N+](C=C1)C
x2 = 0
Details	viscosity [mPa·s]
288.15 K	2.47
293.15 K	2.21
298.15 K	1.99
303.15 K	1.81
313.15 K	1.51
318.15 K	1.39

CC(N)C(=O)[O-].COCCCCn1cc[n+](C)c1 + CS(C)=O
viscosity [mPa·s]
Details	x1 = 0.1009	x1 = 0.1996	x1 = 0.3012	x1 = 0.3985	x1 = 0.4922	x1 = 0.5996	x1 = 0.6966	x1 = 0.7973	x1 = 0.8997	x1 = 1
288.15 K	8.27	–	–	40.5	63.89	–	135.6	203	–	403
293.15 K	7.89	–	–	31.54	48.62	72	100.9	143.7	206	–
298.15 K	6.04	–	15.05	24.76	36.87	53.3	73	101.8	142.7	180.6
303.15 K	4.95	–	12.31	19.81	29.28	–	56.62	77.6	107.6	132.1
308.15 K	4.21	6.25	10.23	–	23.47	–	–	–	80.8	98.3
313.15 K	3.64	5.27	8.32	13.02	18.84	26.78	–	47.36	61.67	73.5
318.15 K	–	4.57	7.01	10.65	–	–	28.53	–	47.83	55.86

CS(C)=O + COCCCC[n+]1ccn(C)c1.NCC(=O)[O-]
x2 = 0
Details	viscosity [mPa·s]
288.15 K	2.47
293.15 K	2.21
298.15 K	1.99
303.15 K	1.81
313.15 K	1.51
318.15 K	1.39
